Data reported in patent US6479435B1, “Diaryl ethers and processes for their preparation and herbicidal and desiccant compositions containing them” (ISK Americas Incorporated, priority 1997, dated 2002).

Key:
Type in all cases: in vivo
[1] = test system: soybean (Glycine max L., var. Pella 86, SOY); experiment: Post-emerge greenhouse test, crop damage rating; settings: 14 days after application
Outline: (§1)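 Plants at the 2-3 leaf stage, sown 8-21 days earlier, were track-sprayed post-emergence with compound in acetone plus 0.25% v/v non-ionic surfactant at 63-1000 g ai/ha (187 l/ha). Damage was rated at 14 days on a 0-100 scale (0 none, 100 all plants dead), for both crop injury and weed control.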

[2] = test system: Johnsongrass (Sorghum halepense, SORHA); experiment: Pre-emerge greenhouse herbicide test, phytotoxicity rating; settings: 14 days after application, rating scale 0-100
Outline: (§2)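 Seeds sown in sandy loam one day before track-sprayer application of acetone solutions at 125–1000 g ai/ha (187 l/ha), then surface-watered to incorporate and bottom-watered. Injury scored visually at 14 days on a 0–100 scale (0 no damage, 100 complete death).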

[3] = test system: velvetleaf (Abutilon theophrasti, ABUTH); experiment: as above; settings: 14 days after application, rating scale 0-100
Outline: as §2

[4] = test system: common ragweed (Ambrosia artemisiifolia L., AMBEL); experiment: as above; settings: 14 days after application, rating scale 0-100
Outline: as §2

[5] = test system: sicklepod (Cassia obtusifolia, CASOB); experiment: as above; settings: 14 days after application, rating scale 0-100
Outline: as §2

[6] = test system: redroot pigweed (Amaranthus retroflexus, AMARE); experiment: as above; settings: 14 days after application, rating scale 0-100
Outline: as §2

[7] = test system: large crabgrass (Digitaria sanguinalis, DIGSA); experiment: as above; settings: 14 days after application, rating scale 0-100
Outline: as §2

[8] = test system: green foxtail (Setaria viridis, SETVI); experiment: as above; settings: 14 days after application, rating scale 0-100
Outline: as §2

[9] = test system: barnyardgrass (Echinochloa crusgalli, ECHCG); experiment: as above; settings: 14 days after application, rating scale 0-100
Outline: as §2

[10] = test system: lambsquarters (Chenopodium album, CHEAL); experiment: as above; settings: 14 days after application, rating scale 0-100
Outline: as §2

[11] = test system: ivyleaf morningglory (Ipomoea hederacea, IPOHE); experiment: as above; settings: 14 days after application, rating scale 0-100
Outline: as §2

[12] = test system: Johnsongrass (Sorghum halepense, SORHA); experiment: Post-emerge greenhouse herbicide test, phytotoxicity rating; settings: 14 days after application
Outline: as §1

[13] = test system: velvetleaf (Abutilon theophrasti, ABUTH); experiment: as above; settings: 14 days after application
Outline: as §1

[14] = test system: sicklepod (Cassia obtusifolia, CASOB); experiment: as above; settings: 14 days after application
Outline: as §1

[15] = test system: redroot pigweed (Amaranthus retroflexus, AMARE); experiment: as above; settings: 14 days after application
Outline: as §1

[16] = test system: large crabgrass (Digitaria sanguinalis, DIGSA); experiment: as above; settings: 14 days after application
Outline: as §1

[17] = test system: green foxtail (Setaria viridis, SETVI); experiment: as above; settings: 14 days after application
Outline: as §1

[18] = test system: barnyardgrass (Echinochloa crusgalli, ECHCG); experiment: as above; settings: 14 days after application
Outline: as §1

[19] = test system: lambsquarters (Chenopodium album, CHEAL); experiment: as above; settings: 14 days after application
Outline: as §1

[20] = test system: ivyleaf morningglory (Ipomoea hederacea, IPOHE); experiment: as above; settings: 14 days after application
Outline: as §1

[21] = test system: common ragweed (Ambrosia artemisiifolia L., AMBEL); experiment: as above; settings: 14 days after application
Outline: as §1

[22] = test system: upland rice (Oryza sp., var.Tebonnet, RICE); experiment: Post-emerge greenhouse test, crop damage rating; settings: 14 days after application
Outline: as §1

[23] = test system: field corn (Zea mays L., var. Dekalb 535, CORN); experiment: Post-emerge greenhouse test, crop damage rating; settings: 14 days after application
Outline: as §1

[24] = test system: soybean (Glycine max L., var. Pella 86, SOY); experiment: Pre-emerge greenhouse test, crop damage rating; settings: 14 days after application, rating scale 0-100
Outline: as §2

[25] = test system: upland rice (Oryza sp., var.Tebonnet, RICE); experiment: Pre-emerge greenhouse test, crop damage rating; settings: 14 days after application, rating scale 0-100
Outline: as §2

[26] = test system: field corn (Zea mays L., var. Dekalb 535, CORN); experiment: Pre-emerge greenhouse test, crop damage rating; settings: 14 days after application, rating scale 0-100
Outline: as §2

Compound: O=c1n(CCCF)nnn1-c1cc(Oc2ccc(C(F)(F)F)cn2)c(Cl)cc1Cl [Compound 6-9]
- SOY crop damage rating (0-100) ([1]; 63 g al/ha): 0
- SOY crop damage rating (0-100) ([1]; 250 g al/ha): 0
- phytotoxicity rating SORHA ([2]; 125 g ai/ha): 0
- phytotoxicity rating SORHA ([2]; 500 g ai/ha): 0
- phytotoxicity rating ABUTH ([3]; 125 g ai/ha): 0
- phytotoxicity rating ABUTH ([3]; 500 g ai/ha): 0
- phytotoxicity rating AMBEL ([4]; 125 g ai/ha): 0
- phytotoxicity rating AMBEL ([4]; 500 g ai/ha): 0
- phytotoxicity rating CASOB ([5]; 125 g ai/ha): 0
- phytotoxicity rating CASOB ([5]; 500 g ai/ha): 0
- phytotoxicity rating AMARE ([6]; 125 g ai/ha): 0
- phytotoxicity rating AMARE ([6]; 500 g ai/ha): 0
- phytotoxicity rating DIGSA ([7]; 125 g ai/ha): 0
- phytotoxicity rating DIGSA ([7]; 500 g ai/ha): 0
- phytotoxicity rating SETVI ([8]; 125 g ai/ha): 0
- phytotoxicity rating SETVI ([8]; 500 g ai/ha): 0
- phytotoxicity rating ECHCG ([9]; 125 g ai/ha): 0
- phytotoxicity rating ECHCG ([9]; 500 g ai/ha): 0
- phytotoxicity rating CHEAL ([10]; 125 g ai/ha): 0
- phytotoxicity rating CHEAL ([10]; 500 g ai/ha): 0
- phytotoxicity rating IPOHE ([11]; 125 g ai/ha): 0
- phytotoxicity rating IPOHE ([11]; 500 g ai/ha): 0
- SORHA phytotoxicity rating (0-100) ([12]; 63 g al/ha): 0
- SORHA phytotoxicity rating (0-100) ([12]; 250 g al/ha): 0
- ABUTH phytotoxicity rating (0-100) ([13]; 63 g al/ha): 0
- ABUTH phytotoxicity rating (0-100) ([13]; 250 g al/ha): 0
- CASOB phytotoxicity rating (0-100) ([14]; 63 g al/ha): 0
- CASOB phytotoxicity rating (0-100) ([14]; 250 g al/ha): 0
- AMARE phytotoxicity rating (0-100) ([15]; 63 g al/ha): 0
- AMARE phytotoxicity rating (0-100) ([15]; 250 g al/ha): 0
- DIGSA phytotoxicity rating (0-100) ([16]; 63 g al/ha): 0
- DIGSA phytotoxicity rating (0-100) ([16]; 250 g al/ha): 0
- SETVI phytotoxicity rating (0-100) ([17]; 63 g al/ha): 0
- SETVI phytotoxicity rating (0-100) ([17]; 250 g al/ha): 0
- ECHCG phytotoxicity rating (0-100) ([18]; 63 g al/ha): 0
- ECHCG phytotoxicity rating (0-100) ([18]; 250 g al/ha): 0
- CHEAL phytotoxicity rating (0-100) ([19]; 63 g al/ha): 0
- CHEAL phytotoxicity rating (0-100) ([19]; 250 g al/ha): 0
- IPOHE phytotoxicity rating (0-100) ([20]; 63 g al/ha): 0
- IPOHE phytotoxicity rating (0-100) ([20]; 250 g al/ha): 0
- AMBEL phytotoxicity rating (0-100) ([21]; 63 g al/ha): 0
- AMBEL phytotoxicity rating (0-100) ([21]; 250 g al/ha): 0
- RICE crop damage rating (0-100) ([22]; 63 g al/ha): 0
- RICE crop damage rating (0-100) ([22]; 250 g al/ha): 0
- CORN crop damage rating (0-100) ([23]; 63 g al/ha): 0
- CORN crop damage rating (0-100) ([23]; 250 g al/ha): 0
- crop damage rating SOY ([24]; 125 g ai/ha): 0
- crop damage rating SOY ([24]; 500 g ai/ha): 0
- crop damage rating RICE ([25]; 125 g ai/ha): 0
- crop damage rating RICE ([25]; 500 g ai/ha): 0
- crop damage rating CORN ([26]; 125 g ai/ha): 0
- crop damage rating CORN ([26]; 500 g ai/ha): 0

Compound: COc1cc(OC)nc(Oc2cc(-n3nnn(CCCF)c3=O)c(F)cc2Cl)n1 [Compound 6-15]
- SOY crop damage rating (0-100) ([1]; 63 g al/ha): 0
- SOY crop damage rating (0-100) ([1]; 500 g al/ha): 40
- phytotoxicity rating SORHA ([2]; 125 g ai/ha): 0
- phytotoxicity rating SORHA ([2]; 500 g ai/ha): 10
- phytotoxicity rating ABUTH ([3]; 125 g ai/ha): 20
- phytotoxicity rating ABUTH ([3]; 500 g ai/ha): 100
- phytotoxicity rating AMBEL ([4]; 125 g ai/ha): 0
- phytotoxicity rating AMBEL ([4]; 500 g ai/ha): 0
- phytotoxicity rating CASOB ([5]; 125 g ai/ha): 0
- phytotoxicity rating CASOB ([5]; 500 g ai/ha): 30
- phytotoxicity rating AMARE ([6]; 125 g ai/ha): 30
- phytotoxicity rating AMARE ([6]; 500 g ai/ha): 100
- phytotoxicity rating DIGSA ([7]; 125 g ai/ha): 10
- phytotoxicity rating DIGSA ([7]; 500 g ai/ha): 60
- phytotoxicity rating SETVI ([8]; 125 g ai/ha): 10
- phytotoxicity rating SETVI ([8]; 500 g ai/ha): 90
- phytotoxicity rating ECHCG ([9]; 125 g ai/ha): 0
- phytotoxicity rating ECHCG ([9]; 500 g ai/ha): 0
- phytotoxicity rating CHEAL ([10]; 125 g ai/ha): 20
- phytotoxicity rating CHEAL ([10]; 500 g ai/ha): 100
- phytotoxicity rating IPOHE ([11]; 125 g ai/ha): 0
- phytotoxicity rating IPOHE ([11]; 500 g ai/ha): 10
- SORHA phytotoxicity rating (0-100) ([12]; 63 g al/ha): 0
- SORHA phytotoxicity rating (0-100) ([12]; 500 g al/ha): 10
- ABUTH phytotoxicity rating (0-100) ([13]; 63 g al/ha): 60
- ABUTH phytotoxicity rating (0-100) ([13]; 500 g al/ha): 99
- CASOB phytotoxicity rating (0-100) ([14]; 63 g al/ha): 20
- CASOB phytotoxicity rating (0-100) ([14]; 500 g al/ha): 40
- AMARE phytotoxicity rating (0-100) ([15]; 63 g al/ha): 20
- AMARE phytotoxicity rating (0-100) ([15]; 500 g al/ha): 95
- DIGSA phytotoxicity rating (0-100) ([16]; 63 g al/ha): 0
- DIGSA phytotoxicity rating (0-100) ([16]; 500 g al/ha): 0
- SETVI phytotoxicity rating (0-100) ([17]; 63 g al/ha): 0
- SETVI phytotoxicity rating (0-100) ([17]; 500 g al/ha): 40
- ECHCG phytotoxicity rating (0-100) ([18]; 63 g al/ha): 0
- ECHCG phytotoxicity rating (0-100) ([18]; 500 g al/ha): 0
- CHEAL phytotoxicity rating (0-100) ([19]; 63 g al/ha): 50
- CHEAL phytotoxicity rating (0-100) ([19]; 500 g al/ha): 90
- IPOHE phytotoxicity rating (0-100) ([20]; 63 g al/ha): 20
- IPOHE phytotoxicity rating (0-100) ([20]; 500 g al/ha): 70
- AMBEL phytotoxicity rating (0-100) ([21]; 63 g al/ha): 0
- AMBEL phytotoxicity rating (0-100) ([21]; 500 g al/ha): 20
- RICE crop damage rating (0-100) ([22]; 63 g al/ha): 0
- RICE crop damage rating (0-100) ([22]; 500 g al/ha): 5
- CORN crop damage rating (0-100) ([23]; 63 g al/ha): 0
- CORN crop damage rating (0-100) ([23]; 500 g al/ha): 5
- crop damage rating SOY ([24]; 125 g ai/ha): 0
- crop damage rating SOY ([24]; 500 g ai/ha): 0
- crop damage rating RICE ([25]; 125 g ai/ha): 0
- crop damage rating RICE ([25]; 500 g ai/ha): 10
- crop damage rating CORN ([26]; 125 g ai/ha): 0
- crop damage rating CORN ([26]; 500 g ai/ha): 100
